The source of these data is patent US20210139484A1, “DIHYDROISOQUINOLINE-2(1H)-CARBOXAMIDE AND RELATED COMPOUNDS AND THEIR USE IN TREATING MEDICAL CONDITIONS” (GOSSAMER BIO SERVICES, INC., priority 2018, published 2021).

pIC50: −log10 of the molar value. Some results are limits rather than exact numbers.

In general, pIC50 refers to the IC50 on a negative log10 scale, so that one unit is a factor of ten. A higher pIC50 goes with a low IC50.

The target of one assay is T1, human HPK1 protein (Homo sapiens, UniProt Q92918).
T1 construct: recombinant human HPK1 protein (a.a. 1-346) was expressed in Sf9 insect cells; GST (N); purchased Signalchem M23-11G; host or cells: Sf9 insect cells (baculovirus)
T1 sequence (Q92918 1-346): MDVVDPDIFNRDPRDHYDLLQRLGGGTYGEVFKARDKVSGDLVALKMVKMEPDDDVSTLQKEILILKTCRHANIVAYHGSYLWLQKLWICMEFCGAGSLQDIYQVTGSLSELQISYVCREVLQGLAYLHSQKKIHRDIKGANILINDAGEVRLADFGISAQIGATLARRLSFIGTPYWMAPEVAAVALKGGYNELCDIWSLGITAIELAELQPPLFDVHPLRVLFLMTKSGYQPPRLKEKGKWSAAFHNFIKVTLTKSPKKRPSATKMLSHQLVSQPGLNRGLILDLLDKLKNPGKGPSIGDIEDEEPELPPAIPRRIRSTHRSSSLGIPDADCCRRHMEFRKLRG
Briefly: Human HPK1 protein TR-FRET assay. The conditions noted are these: 1 mM ATP, Table 19. The format is biochemical. On the procedure: Exemplary compounds from the above Examples were tested for ability to inhibit HPK1 using a human HPK1 protein TR-FRET Assay. Assay procedures and results are described below.
N-terminal GST-tagged recombinant human HPK1 protein (a.a. 1-346) was expressed in Sf9 insect cells using a baculovirus expression system (Signalchem Catalog #M23-11G). The enzyme was diluted in assay buffer (50 mM Tris pH 7.5, 1 mM MgCl2, 0.01% NP-40 and 2 mM DTT) to obtain a 4× working solution at a concentration of 40 nM HPK1 enzyme.
A 5 μM stock of ULight™ CREBtide peptide RRPSYRK (Perkin Elmer Product No. TRF0107-M) derived from human cAMP Response Element Binding (CREB) Protein was prepared in storage buffer containing 50 mM Tris-HCl (pH 7.4), 0.9% NaCl, 0.1% BSA, and 0.05% sodium azide. The CREBtide substrate was diluted in assay buffer (50 mM Tris pH 7.5, 1 mM MgCl2, 0.01% NP-40, 2 mM DTT) with 2 mM ATP to a final concentration of 200 nM CREBtide peptide to obtain a 2× working solution of substrate. HPK1 enzyme and CREBtide substrate solutions were mixed with compounds diluted in DMSO to obtain a final concentration of enzyme, substrate, and ATP of 10 nM, 100 nM, and 1 mM, respectively, in 1% DMSO. The final assay mixture was incubated at room temperature for 60 minutes.
A solution of Europium-labeled anti-phospho-CREB (Ser133) antibody (Perkin Elmer Product No. TRF0200-M), EDTA and LANCE™ Detection Buffer (Perkin Elmer Product No. CR97-100) were added to each well to obtain a final concentration of 2 nM antibody, 10 mM EDTA and 1× LANCE buffer. The resulting mixture was incubated at room temperature for 60 minutes.
The fluorescence resonance energy transfer (FRET) signal was measured on an Envision plate reader: Excitation filter=340 nm, APC emission=665 nm, Europium emission=615 nm, dichroic mirror=D400/D630, delay time=100 μs, and integration time=200 μs. The half maximal inhibitory concentration (IC50) values for compounds were calculated from the quotient of the fluorescence signal at 665 nm divided by the fluorescence signal at 615 nm. The quotient of the fluorescence signals in the presence of DMSO without compound is set as 100 percent enzymatic activity. A 4-parameter logistic model in PRISM (GraphPad) was used to calculate the IC50 for a given compound.
(In TR-FRET formats the signal depends on donor and acceptor labels being close together.)
`CCN1CCN(Cc2ccc(NC(=O)N3CCc4ccc(Oc5ccnn6cc(-c7cnn(C)c7)cc56)cc4[C@@H]3C)cc2C(F)(F)F)CC1` [V-7]: the pIC50 is greater than 6.30. Still for that read-out and setting: with `CCN1CCN(Cc2ccc(NC(=O)N3CCc4ncc(Oc5ccnc6[nH]ccc56)cc4C3C)cc2C(F)(F)F)CC1` (centres unmarked) [compound 9, 3-((1H-pyrrolo[2,3-b]pyridin-4-yl)oxy)-N-(4-((4-ethylpiperazin-1-yl)methyl)-3-(trifluoromethyl)phenyl)-5-methyl-7,8-dihydro-1,6-naphthyridine-6(5H)-carboxamide] the figure was greater than 6.30; with `C[C@H]1c2cc(Oc3ccnc4[nH]ccc34)ccc2CCN1C(=O)Nc1ccc(OC2CCNCC2)c(C(F)F)c1` [V-14], 5.30 to 6.30; with `Cc1cc2c(Oc3ccc4c(c3)CN(C(=O)Nc3cnc(OC5CCN(C)CC5)c(C(F)(F)F)c3)CC4C)ccnc2[nH]1` (centres unmarked) [IV-38], greater than 6.30. Still for that read-out and setting: with `CCN1CCN(Cc2ccc(NC(=O)N3CCc4ccc(Nc5ncnn6cccc56)cc4C3)cc2C(F)(F)F)CC1` [compound 11, N-(4-((4-Ethylpiperazin-1-yl)methyl)-3-(trifluoromethyl)phenyl)-7-(pyrrolo[2,1-f][1,2,4]triazin-4-ylamino)-3,4-dihydroisoquinoline-2(1H)-carboxamide] the figure was 5.30 to 6.30; with `CCN1CCN(Cc2ccc(NC(=O)C3CCc4ccc(Oc5ccnc6[nH]c(C)cc56)cc4N3)cc2C(F)(F)F)CC1` (centres unmarked) [compound 15, N-(4-((4-ethylpiperazin-1-yl)methyl)-3-(trifluoromethyl)phenyl)-7-((2-methyl-1H-pyrrolo[2,3-b]pyridin-4-yl)oxy)-1,2,3,4-tetrahydroquinoline-2-carboxamide], greater than 6.30; with `CCN1CCN(Cc2ccc(NC(=O)N3CCc4c(F)cc(Oc5ccnc6[nH]ccc56)cc4C3C)cc2C(F)(F)F)CC1` (centres unmarked) [IV-16], 5.30 to 6.30.

Molecule `Cc1cc2c(Oc3ccc4c(c3)[C@H](C)N(C(=O)Nc3ccc5c(N6CCN(C)CC6)cccc5c3)CC4)ccnc2[nH]1` [X-6] had a pIC50 greater than 6.30. Same read-out and setting: with `Cc1cc2c(Oc3cnc4c(c3)CN(C(=O)Nc3cnc(OC5CCN(C)CC5)c(C(F)(F)F)c3)CC4C)ccnc2[nH]1` (single isomer, unassigned) [VII-8] the figure was greater than 6.30; with `CCN1CCC(Oc2ncc(NC(=O)N3CCc4ccc(Oc5ccnc6[nH]c(C)cc56)cc4[C@@H]3C)cc2C(F)(F)F)CC1` [VI-3], greater than 6.30; with `CCN1CCN(Cc2ccc(NC(=O)N3CC(C)c4ccc(Oc5ccnc6[nH]ccc56)cc4[C@@H]3C)cc2C(F)(F)F)CC1` (some centres unmarked) [X-4], less than 5.00. Still for that read-out and setting: with `CCN1CCN(Cc2ccc(NC(=O)N3CCc4ccc(Oc5ccnn6cccc56)cc4[C@@H]3C)cc2C(F)(F)F)CC1` [V-6] the figure was greater than 6.30; with `CCN1CCN(Cc2ccc(NC(=O)N3CCc4ccc(Oc5ccnc6[nH]ccc56)cc4C3C)cc2C(F)(F)F)CC1` (centres unmarked) [IV-1], 5.30 to 6.30; with `C[C@H]1c2cc(Oc3ccnc4[nH]ccc34)ccc2CCN1C(=O)Nc1ccc(CN2CCN(CCO)CC2)c(C(F)(F)F)c1` [V-19], greater than 6.30. In turn, `CCN1CCN(Cc2ccc(NC(=O)N3CCc4ccc(Oc5ccnc6[nH]ccc56)cc4C3=O)cc2C(F)(F)F)CC1` [X-2] gave a pIC50 of 5.30 to 6.30.

With `Cc1cc2c(Oc3ccc4c(c3)[C@H](C)N(C(=O)Nc3cnc(OC5CCN(C)CC5O)c(C(F)(F)F)c3)CC4)ccnc2[nH]1` (stereo in doubt) [VI-8], the pIC50 is greater than 6.30. The molecule `C[C@H]1c2cc(Oc3ccnc4[nH]ccc34)ccc2CCN1C(=O)Nc1ccc(CN2CCNCC2)c(C(F)(F)F)c1` [V-1] showed a pIC50 greater than 6.30.

Regarding `Cc1cc2c(Oc3ccc4c(c3)[C@H](C)N(C(=O)Nc3cnc(OC5CCCN(C)CC5)c(C(F)(F)F)c3)CC4)ccnc2[nH]1` (mixture of isomers) [VI-13], the pIC50 was 5.30 to 6.30. The molecule `CCN1CCN(Cc2ccc(NC(=O)N3CCc4cc(F)c(Oc5ccnn6cccc56)cc4C3C)cc2C(F)(F)F)CC1` (centres unmarked) [IV-32] gave a pIC50 of less than 5.00. Same read-out and setting: with `CCN1CCN(Cc2ccc(NC(=O)N3CCc4ccc(Oc5ccnn6cc(Br)cc56)cc4C3)cc2C(F)(F)F)CC1` [II-24] the figure was greater than 6.30. Same read-out and setting: with `CCN1CCN(Cc2ccc(NC(=O)N3CCc4cc(F)c(Oc5ncnn6cccc56)cc4C3C)cc2C(F)(F)F)CC1` (centres unmarked) [IV-33] the figure was greater than 6.30; with `CCN1CCN(Cc2ccc(NC(=O)N3CCc4ccc(Oc5ccnn6cc(-c7cnn(C)c7)cc56)cc4C3)cc2C(F)(F)F)CC1` [II-26], greater than 6.30; with `CCN1CCN(Cc2ccc(NC(=O)N3Cc4cc(Oc5ccnc6[nH]c(C)cc56)cnc4C(C)C3)cc2C(F)(F)F)CC1` (single isomer, unassigned) [VII-4], greater than 6.30. On the same count and under the same terms, with `CCN1CCN(Cc2ccc(NC(=O)N3Cc4cc(Oc5ccnc6[nH]c(C)cc56)c(F)cc4C(C)C3)cc2C(F)(F)F)CC1` (centres unmarked) [IV-27] the figure was greater than 6.30.

The same assay, now with this note: 1 mM ATP, Table 20.
`C[C@H]1c2cc(Oc3ccnc4[nH]c(CO)cc34)ccc2CCN1C(=O)Nc1ccc(CN2CCN(CCO)CC2)c(C(F)(F)F)c1` [XIII-5] gave a pIC50 greater than 6.30. `CC[C@H]1CN(C(=O)Nc2ccc(CN3CCN(CCO)CC3)c(C(F)F)c2)Cc2cc(Oc3ccnc4[nH]c(C#N)cc34)ccc21` [XV-21] had a pIC50 greater than 6.30. `CCN1CCN(Cc2ccc(NC(=O)N3Cc4cc(Oc5ccnc6[nH]nnc56)cnc4C(C)C3)cc2C(F)(F)F)CC1` (single isomer, unassigned) [XIV-17] gave a pIC50 of less than 5.00. For the molecule `CCN1CCN(Cc2ccc(NC(=O)N3CCc4ccc(Oc5cc(NC(=O)C6CC6)ncc5F)cc4[C@@H]3C)cc2C(F)(F)F)CC1` [XIII-15], the pIC50 was greater than 6.30. `CC[C@@H]1CN(C(=O)Nc2cnc(O[C@H]3CCN(C)C3)c(C(F)(F)F)c2)Cc2cc(Oc3ccnc4[nH]c(C)cc34)cnc21` [XIV-67] gave a pIC50 of less than 5.00. On the same count and under the same terms, with `CC[C@H]1CN(C(=O)Nc2ccc(CN3CCN(C)CC3)c(C(F)(F)F)c2)Cc2cc(Oc3ncnc4[nH]c(C(=O)NC)cc34)cnc21` [XIV-121] the figure was greater than 6.30; with `CC[C@H]1CN(C(=O)Nc2ccc(CN3CCNCC3)c(C(F)(F)F)c2)Cc2cc(Oc3ccnc4[nH]c(-c5noc(=O)[nH]5)cc34)cnc21` [XIV-135], greater than 6.30. Still for that read-out and setting: with `C[C@@H]1Cc2ccc(Oc3ccnc4[nH]c(C(=O)N(C)C)cc34)cc2CN1C(=O)Nc1cnc(OC2CCN(C)CC2)c(C(F)(F)F)c1` [XVI-7] the figure was greater than 6.30; with `CCC1CN(C(=O)Nc2ccc(CN3CCN(CC)CC3)c(C(F)(F)F)c2)Cc2cc(Oc3ccnc4[nH]c(C(C)O)cc34)cnc21` (centres unmarked) [XIV-40], greater than 6.30. On the same count and under the same terms, with `CCN1CCN(Cc2ccc(NC(=O)N3CCc4ncc(Oc5ccnc6[nH]ccc56)cc4[C@@H]3C)cc2C(F)(F)F)CC1` [XI-3] the figure was greater than 6.30; with `CC[C@H]1CN(C(=O)Nc2ccc(CN3CCN(C)CC3)c(C(F)(F)F)c2)Cc2cc(Oc3ccnc4[nH]c(C5(O)COC5)cc34)cnc21` [XIV-51], greater than 6.30. `CC[C@@H]1CN(C(=O)Nc2ccc(CN3CCN(CCO)CC3)c(C(F)(F)F)c2)Cc2cc(Oc3ccnc4[nH]c(C5CC5)cc34)cnc21` [XIV-65]: the pIC50 is greater than 6.30.

`CN1CCN(Cc2ccc(NC(=O)N3Cc4cc(Oc5ccnc6[nH]ccc56)ccc4C(C(F)(F)F)C3)cc2C(F)(F)F)CC1` (centres unmarked) [XVIII-14] showed a pIC50 greater than 6.30.

In turn, `CC[C@@H]1CN(C(=O)Nc2ccc(CN3CCN(C)CC3)c(C(F)(F)F)c2)Cc2cc(Oc3ccnn4cc(C(=O)N(C)C)nc34)cnc21` [XIV-115] had a pIC50 of 5.00 to 5.30. The same measure, in the same setting: with `CCC1CN(C(=O)Nc2ccc(CN3CCN(CC)CC3)c(C(F)(F)F)c2)Cc2cc(Oc3cc(NC(=O)c4cnn(C)c4)ncc3F)cnc21` (centres unmarked) [XIV-92] the figure was greater than 6.30; with `C[C@H]1CN(C(=O)Nc2ccc(CN3CCN(C)CC3)c(C(F)(F)F)c2)Cc2cc(Oc3ccnc4[nH]c(C#N)cc34)ccc21` [XV-34], greater than 6.30. Still for that read-out and setting: with `C[C@H]1CN(C(=O)Nc2ccc(CN3CCN(CCO)CC3)c(C(F)(F)F)c2)Cc2cc(Oc3ccnc4[nH]c(C#N)cc34)ccc21` [XV-36] the figure was greater than 6.30.
